In ChEMBL document CHEMBL5696441 (Nat Chem Biol, 2011) one finds Activity data, which are given here for 2 molecules.

Molecules are shown by their SMILES.

The target of assay [1] is Atypical kinase COQ8A, mitochondrial (Homo sapiens) (UniProt Q8NI60). Description: Inhibition of ADCK3 (unknown origin) assessed as remaining activity at 1 uM by Kinome scan method relative to control.
Assay [2] has as its target T1, Aurora kinase C (Homo sapiens) (UniProt Q9UQB9).
T1 sequence (whole entry): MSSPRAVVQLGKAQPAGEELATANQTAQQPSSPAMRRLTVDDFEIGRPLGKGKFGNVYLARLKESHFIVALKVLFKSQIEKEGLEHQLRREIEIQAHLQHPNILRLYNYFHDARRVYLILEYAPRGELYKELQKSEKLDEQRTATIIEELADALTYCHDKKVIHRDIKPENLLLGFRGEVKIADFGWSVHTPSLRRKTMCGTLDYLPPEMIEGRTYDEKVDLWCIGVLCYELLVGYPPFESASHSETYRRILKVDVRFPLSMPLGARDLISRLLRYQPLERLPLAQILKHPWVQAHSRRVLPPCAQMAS
Description: Inhibition of AURKC (unknown origin) assessed as remaining activity at 1 uM by Kinome scan method relative to control.

For assay [3], the target named is Tyrosine-protein kinase Blk (Homo sapiens) (UniProt P51451). As to the kind of experiment: Inhibition of BLK (unknown origin) assessed as remaining activity at 1 uM by Kinome scan method relative to control.
Sequence of Tyrosine-protein kinase Blk (Homo sapiens) (P51451 2-505 limits assumed): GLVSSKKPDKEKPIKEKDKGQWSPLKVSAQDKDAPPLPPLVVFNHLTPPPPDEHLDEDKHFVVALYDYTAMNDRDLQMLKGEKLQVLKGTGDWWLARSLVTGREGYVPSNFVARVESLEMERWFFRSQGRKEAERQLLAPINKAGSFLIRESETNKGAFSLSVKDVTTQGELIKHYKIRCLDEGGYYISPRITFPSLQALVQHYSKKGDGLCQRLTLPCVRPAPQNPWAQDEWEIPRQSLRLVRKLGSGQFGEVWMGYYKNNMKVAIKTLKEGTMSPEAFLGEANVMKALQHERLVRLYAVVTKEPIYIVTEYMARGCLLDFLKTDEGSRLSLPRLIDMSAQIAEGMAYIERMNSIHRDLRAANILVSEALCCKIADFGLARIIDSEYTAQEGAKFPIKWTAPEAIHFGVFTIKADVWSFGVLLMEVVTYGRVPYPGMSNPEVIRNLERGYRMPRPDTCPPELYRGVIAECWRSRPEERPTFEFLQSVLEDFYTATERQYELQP
Assay [4] concerns the target Dual specificity tyrosine-phosphorylation-regulated kinase 1A (Homo sapiens) (UniProt Q13627). Description: Inhibition of DYRK1A (unknown origin) assessed as remaining activity at 1 uM by Kinome scan method relative to control.
Assay [5] concerns the target Ephrin type-A receptor 2 (Homo sapiens) (UniProt P29317). Description: Inhibition of EPHA2 (unknown origin) assessed as remaining activity at 1 uM by Kinome scan method relative to control.
Assay [6] deals with Serine/threonine-protein kinase/endoribonuclease IRE1 (Homo sapiens) (UniProt O75460). Description: Inhibition of ERN1 (unknown origin) assessed as remaining activity at 1 uM by Kinome scan method relative to control.
The target of assay [7] is Fibroblast growth factor receptor 1 (Homo sapiens) (UniProt P11362). Description: Inhibition of FGFR1 (unknown origin) assessed as remaining activity at 1 uM by Kinome scan method relative to control.
Sequence of Fibroblast growth factor receptor 1 (Homo sapiens) (P11362 22-822 limits assumed): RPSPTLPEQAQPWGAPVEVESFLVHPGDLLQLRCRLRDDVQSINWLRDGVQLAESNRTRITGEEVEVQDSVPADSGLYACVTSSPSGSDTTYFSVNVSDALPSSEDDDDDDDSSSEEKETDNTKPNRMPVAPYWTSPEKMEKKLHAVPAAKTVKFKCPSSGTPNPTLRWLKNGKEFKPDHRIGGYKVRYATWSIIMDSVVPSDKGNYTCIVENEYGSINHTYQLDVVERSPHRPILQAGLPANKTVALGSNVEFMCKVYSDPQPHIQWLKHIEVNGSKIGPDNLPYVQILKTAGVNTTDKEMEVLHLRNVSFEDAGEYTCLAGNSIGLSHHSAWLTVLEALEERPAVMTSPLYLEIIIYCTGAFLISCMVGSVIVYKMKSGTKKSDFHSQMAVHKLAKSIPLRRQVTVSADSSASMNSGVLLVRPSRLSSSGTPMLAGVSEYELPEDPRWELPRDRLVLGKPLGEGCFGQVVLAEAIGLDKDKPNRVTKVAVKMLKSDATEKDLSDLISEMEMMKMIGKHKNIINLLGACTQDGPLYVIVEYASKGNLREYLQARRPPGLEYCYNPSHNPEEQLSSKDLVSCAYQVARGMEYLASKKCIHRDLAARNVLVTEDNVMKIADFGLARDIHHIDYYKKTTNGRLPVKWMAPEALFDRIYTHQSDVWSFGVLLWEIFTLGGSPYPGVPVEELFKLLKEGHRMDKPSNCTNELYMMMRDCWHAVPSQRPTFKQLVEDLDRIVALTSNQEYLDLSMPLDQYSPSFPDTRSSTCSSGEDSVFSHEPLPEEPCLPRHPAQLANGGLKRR
The target in assay [8] is Fibroblast growth factor receptor 2 (Homo sapiens) (UniProt P21802). Description: Inhibition of FGFR2 (unknown origin) assessed as remaining activity at 1 uM by Kinome scan method relative to control.
For assay [9], the target named is Interleukin-1 receptor-associated kinase 1 (Homo sapiens) (UniProt P51617). As to the kind of experiment: Inhibition of IRAK1 (unknown origin) assessed as remaining activity at 1 uM by Kinome scan method relative to control.
Assay [10] has as its target MAP/microtubule affinity-regulating kinase 3 (Homo sapiens) (UniProt P27448). As to the kind of experiment: Inhibition of MARK3 (unknown origin) assessed as remaining activity at 1 uM by Kinome scan method relative to control.
The target of assay [11] is Serine/threonine-protein kinase 26 (Homo sapiens) (UniProt Q9P289). Description: Inhibition of MST4 (unknown origin) assessed as remaining activity at 1 uM by Kinome scan method relative to control.
Sequence of Serine/threonine-protein kinase 26 (Homo sapiens) (Q9P289 2-416 limits assumed): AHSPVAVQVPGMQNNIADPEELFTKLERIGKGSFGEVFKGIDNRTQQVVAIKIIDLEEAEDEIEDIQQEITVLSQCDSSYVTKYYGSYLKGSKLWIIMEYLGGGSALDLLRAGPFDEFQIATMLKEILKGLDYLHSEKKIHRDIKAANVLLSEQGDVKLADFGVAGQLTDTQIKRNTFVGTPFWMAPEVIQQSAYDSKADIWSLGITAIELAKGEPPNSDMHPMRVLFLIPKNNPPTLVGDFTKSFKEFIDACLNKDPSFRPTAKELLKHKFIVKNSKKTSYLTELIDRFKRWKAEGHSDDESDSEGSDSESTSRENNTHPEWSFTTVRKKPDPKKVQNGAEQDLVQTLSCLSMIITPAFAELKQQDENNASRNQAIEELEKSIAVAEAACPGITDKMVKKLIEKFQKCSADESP
Assay [12] addresses Cyclin-dependent kinase 16 (Homo sapiens) (UniProt Q00536). As to the kind of experiment: Inhibition of PCTK1 (unknown origin) assessed as remaining activity at 1 uM by Kinome scan method relative to control.
Assay [13] deals with Phosphatidylinositol 3-kinase C2 domain-containing subunit gamma (Homo sapiens) (UniProt O75747). As to the kind of experiment: Inhibition of PIK3C2G (unknown origin) assessed as remaining activity at 1 uM by Kinome scan method relative to control.
Assay [14] has as its target Phosphatidylinositol 5-phosphate 4-kinase type-2 beta (Homo sapiens) (UniProt P78356). Description: Inhibition of PIP5K2B (unknown origin) assessed as remaining activity at 1 uM by Kinome scan method relative to control.
Assay [15] addresses Membrane-associated tyrosine- and threonine-specific cdc2-inhibitory kinase (Homo sapiens) (UniProt Q99640). As to the kind of experiment: Inhibition of PKMYT1 (unknown origin) assessed as remaining activity at 1 uM by Kinome scan method relative to control.
The target of assay [16] is Serine/threonine-protein kinase PLK1 (Homo sapiens) (UniProt P53350). As to the kind of experiment: Inhibition of PLK1 (unknown origin) assessed as remaining activity at 1 uM by Kinome scan method relative to control.
Sequence of Serine/threonine-protein kinase PLK1 (Homo sapiens) (P53350 whole entry): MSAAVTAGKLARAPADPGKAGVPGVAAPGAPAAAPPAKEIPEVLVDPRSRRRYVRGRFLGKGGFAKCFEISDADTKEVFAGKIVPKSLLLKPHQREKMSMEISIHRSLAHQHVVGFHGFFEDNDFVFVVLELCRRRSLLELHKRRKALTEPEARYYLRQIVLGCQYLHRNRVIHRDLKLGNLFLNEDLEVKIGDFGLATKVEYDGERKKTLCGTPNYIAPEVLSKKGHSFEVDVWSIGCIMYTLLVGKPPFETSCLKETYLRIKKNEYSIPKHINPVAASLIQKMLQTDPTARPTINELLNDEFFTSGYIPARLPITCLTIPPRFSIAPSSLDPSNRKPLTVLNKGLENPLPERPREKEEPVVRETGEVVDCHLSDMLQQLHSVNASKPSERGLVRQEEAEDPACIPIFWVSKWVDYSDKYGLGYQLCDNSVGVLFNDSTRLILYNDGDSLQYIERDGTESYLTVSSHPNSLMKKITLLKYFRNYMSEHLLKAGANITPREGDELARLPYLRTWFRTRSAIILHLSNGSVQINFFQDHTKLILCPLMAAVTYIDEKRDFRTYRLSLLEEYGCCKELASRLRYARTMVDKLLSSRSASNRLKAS
Assay [17] has as its target Interferon-induced, double-stranded RNA-activated protein kinase (Homo sapiens) (UniProt P19525). As to the kind of experiment: Inhibition of PRKR (unknown origin) assessed as remaining activity at 1 uM by Kinome scan method relative to control.
The target in assay [18] is Serine/threonine-protein kinase SIK2 (Homo sapiens) (UniProt Q9H0K1). As to the kind of experiment: Inhibition of SIK2 (unknown origin) assessed as remaining activity at 1 uM by Kinome scan method relative to control.
Sequence of Serine/threonine-protein kinase SIK2 (Homo sapiens) (Q9H0K1 whole entry, looked up): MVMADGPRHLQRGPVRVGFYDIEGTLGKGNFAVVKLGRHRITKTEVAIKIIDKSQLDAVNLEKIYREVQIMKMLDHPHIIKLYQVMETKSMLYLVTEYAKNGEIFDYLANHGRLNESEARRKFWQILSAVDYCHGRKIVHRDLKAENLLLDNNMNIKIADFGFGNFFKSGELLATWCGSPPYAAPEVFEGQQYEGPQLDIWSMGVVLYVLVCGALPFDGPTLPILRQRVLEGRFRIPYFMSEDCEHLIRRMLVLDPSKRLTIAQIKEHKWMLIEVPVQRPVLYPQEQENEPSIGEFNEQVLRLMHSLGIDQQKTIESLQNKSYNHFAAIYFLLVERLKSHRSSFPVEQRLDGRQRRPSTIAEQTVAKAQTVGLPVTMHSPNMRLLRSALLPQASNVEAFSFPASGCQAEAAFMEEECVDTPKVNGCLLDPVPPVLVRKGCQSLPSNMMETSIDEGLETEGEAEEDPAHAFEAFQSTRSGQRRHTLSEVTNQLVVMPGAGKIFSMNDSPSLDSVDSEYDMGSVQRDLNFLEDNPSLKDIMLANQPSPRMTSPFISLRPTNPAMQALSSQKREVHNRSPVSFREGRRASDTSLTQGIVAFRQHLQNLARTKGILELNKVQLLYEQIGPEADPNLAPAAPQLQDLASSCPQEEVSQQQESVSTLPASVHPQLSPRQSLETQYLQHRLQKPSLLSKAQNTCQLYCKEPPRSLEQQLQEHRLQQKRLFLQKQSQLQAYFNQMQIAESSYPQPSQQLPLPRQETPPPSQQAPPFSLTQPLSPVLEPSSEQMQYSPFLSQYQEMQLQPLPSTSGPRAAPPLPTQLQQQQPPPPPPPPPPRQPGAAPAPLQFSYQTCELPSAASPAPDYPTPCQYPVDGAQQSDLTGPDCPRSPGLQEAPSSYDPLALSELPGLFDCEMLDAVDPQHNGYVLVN
Assay [19] addresses T2, TGF-beta receptor type-1 (Homo sapiens) (UniProt P36897).
T2 sequence (whole entry): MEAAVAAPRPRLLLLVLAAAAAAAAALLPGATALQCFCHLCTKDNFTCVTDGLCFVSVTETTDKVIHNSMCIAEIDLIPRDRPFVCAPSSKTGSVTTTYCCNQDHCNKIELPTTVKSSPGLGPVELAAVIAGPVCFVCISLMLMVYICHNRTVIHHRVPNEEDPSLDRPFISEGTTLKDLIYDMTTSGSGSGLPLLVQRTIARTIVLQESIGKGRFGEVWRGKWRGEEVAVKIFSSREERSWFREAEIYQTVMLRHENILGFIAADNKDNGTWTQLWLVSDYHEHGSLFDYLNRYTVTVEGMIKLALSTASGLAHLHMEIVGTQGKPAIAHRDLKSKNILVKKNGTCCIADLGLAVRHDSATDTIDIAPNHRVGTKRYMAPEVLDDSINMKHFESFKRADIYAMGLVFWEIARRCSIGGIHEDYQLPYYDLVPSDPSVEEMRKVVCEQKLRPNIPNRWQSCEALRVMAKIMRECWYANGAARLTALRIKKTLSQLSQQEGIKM
As to the kind of experiment: Inhibition of TGFBR1 (unknown origin) assessed as remaining activity at 1 uM by Kinome scan method relative to control.

For assay [20], the target named is Serine/threonine-protein kinase tousled-like 2 (Homo sapiens) (UniProt Q86UE8). Description: Inhibition of TLK2 (unknown origin) assessed as remaining activity at 1 uM by Kinome scan method relative to control.
The target in assay [21] is Wee1-like protein kinase (Homo sapiens) (UniProt P30291). Description: Inhibition of WEE1 (unknown origin) assessed as remaining activity at 1 uM by Kinome scan method relative to control.
For assay [22], the target named is Serine/threonine-protein kinase 32C (Homo sapiens) (UniProt Q86UX6). As to the kind of experiment: Inhibition of YANK3 (unknown origin) assessed as remaining activity at 1 uM by Kinome scan method relative to control.
Assay [23] has as its target Mitogen-activated protein kinase kinase kinase 19 (Homo sapiens) (UniProt Q56UN5). Description: Inhibition of YSK4 (unknown origin) assessed as remaining activity at 1 uM by Kinome scan method relative to control.

Sequence of Cyclin-dependent kinase 16 (Homo sapiens) (Q00536 whole entry, the tested form may be a part): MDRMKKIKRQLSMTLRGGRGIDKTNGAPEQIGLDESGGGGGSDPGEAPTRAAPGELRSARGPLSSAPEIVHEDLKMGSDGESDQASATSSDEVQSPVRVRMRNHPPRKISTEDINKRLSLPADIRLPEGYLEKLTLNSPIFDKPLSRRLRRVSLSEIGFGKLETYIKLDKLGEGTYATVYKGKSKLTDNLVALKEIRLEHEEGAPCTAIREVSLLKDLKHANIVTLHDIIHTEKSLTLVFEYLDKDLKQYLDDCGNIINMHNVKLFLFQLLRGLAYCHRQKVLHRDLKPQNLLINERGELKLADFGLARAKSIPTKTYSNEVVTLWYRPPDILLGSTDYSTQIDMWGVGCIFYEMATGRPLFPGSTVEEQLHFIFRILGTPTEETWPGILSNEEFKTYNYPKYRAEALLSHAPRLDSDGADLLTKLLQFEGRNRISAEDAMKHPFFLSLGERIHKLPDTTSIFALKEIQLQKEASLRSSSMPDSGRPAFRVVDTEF
Sequence of MAP/microtubule affinity-regulating kinase 3 (Homo sapiens) (P27448 whole entry, looked up): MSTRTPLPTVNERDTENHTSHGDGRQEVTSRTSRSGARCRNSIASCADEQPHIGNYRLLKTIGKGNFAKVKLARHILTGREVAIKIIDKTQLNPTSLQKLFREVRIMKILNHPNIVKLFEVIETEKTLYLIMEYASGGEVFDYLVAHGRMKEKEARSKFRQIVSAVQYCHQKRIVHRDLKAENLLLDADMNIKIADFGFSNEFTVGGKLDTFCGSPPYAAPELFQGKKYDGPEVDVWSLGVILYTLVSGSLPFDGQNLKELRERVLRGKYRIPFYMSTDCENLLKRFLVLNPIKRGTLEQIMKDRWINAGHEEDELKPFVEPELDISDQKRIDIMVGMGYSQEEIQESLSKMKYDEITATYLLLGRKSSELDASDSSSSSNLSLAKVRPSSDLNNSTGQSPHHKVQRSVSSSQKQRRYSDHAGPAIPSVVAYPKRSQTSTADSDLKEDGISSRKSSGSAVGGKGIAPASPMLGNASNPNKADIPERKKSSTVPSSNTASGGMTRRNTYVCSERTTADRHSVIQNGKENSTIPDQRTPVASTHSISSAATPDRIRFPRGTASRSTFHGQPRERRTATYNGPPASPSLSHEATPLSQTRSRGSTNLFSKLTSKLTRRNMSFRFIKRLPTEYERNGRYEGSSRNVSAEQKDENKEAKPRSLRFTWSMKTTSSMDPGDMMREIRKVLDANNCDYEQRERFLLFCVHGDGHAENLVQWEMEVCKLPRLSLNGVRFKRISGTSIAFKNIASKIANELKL
Sequence of Phosphatidylinositol 5-phosphate 4-kinase type-2 beta (Homo sapiens) (P78356 whole entry): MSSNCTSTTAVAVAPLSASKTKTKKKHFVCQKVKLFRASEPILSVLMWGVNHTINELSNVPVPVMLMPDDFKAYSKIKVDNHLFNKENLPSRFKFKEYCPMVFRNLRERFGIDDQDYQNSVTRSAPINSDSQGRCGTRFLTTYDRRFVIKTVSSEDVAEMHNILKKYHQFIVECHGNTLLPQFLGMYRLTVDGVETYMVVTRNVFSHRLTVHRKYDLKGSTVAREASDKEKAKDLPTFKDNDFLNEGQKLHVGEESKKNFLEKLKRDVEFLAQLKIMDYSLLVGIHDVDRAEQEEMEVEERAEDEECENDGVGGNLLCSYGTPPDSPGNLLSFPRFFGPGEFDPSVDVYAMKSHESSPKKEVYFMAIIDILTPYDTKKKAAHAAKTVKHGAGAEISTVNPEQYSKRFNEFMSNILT

`Nc1ccccc1Nc1ccc2c(c1)CCc1ccccc1C2=O`: the Activity in [1] amounted to 78%; in [2], 91%; in [3], 66%; in assay [4], 92%; in assay [5] it was 93%; in assay [6], 98%. Also, the Activity in assay [7] was 94%; in [8] it was 91%; in [9], 75%; in assay [10], 82%; in assay [11] it was 96%; in [12], 98%. Besides, the Activity in assay [13] turned out to be 97%; in assay [14], 86%; in assay [15], 64%; in assay [16], 93%; in assay [17], 86%; in [18], 83%. Besides, the Activity in assay [19] came to 90%; in assay [20] it was 85%; in assay [21], 98%; in [22], 96%; in assay [23] it was 99%.

Consider `O=C1c2ccc(Nc3ccc(F)cc3F)cc2CCc2ccc(OC[C@H](O)CO)cc21` [Skepinone-L], for which the Activity in assay [1] is 88%; in assay [2], 90%; in [3], 97%; in assay [4], 98%; in assay [5], 92%; in [6], 100%. The Activity is 90% in [7]; 98% in [8]; 100% in assay [9]; 90% in assay [10]; 100% in assay [11]; 85% in assay [12]. Moreover, the Activity in assay [13] is 100%; in assay [14] it was 100%; in assay [15], 85%; in [16], 88%; in assay [17], 82%; in assay [18], 93%. The Activity in [19] came to 100%; in assay [20] it was 82%; in assay [21], 100%; in assay [22], 99%; in assay [23], 100%.
